Experimental data taken from the NIST ThermoML archive (doi:10.1021/je100927m).

Tests used:
[1] = Liquid; for mass density: 101.33 kPa; for speed of sound: Pulse-echo method
[2] = refractive index (Na D-line) (dimensionless); conditions: 298.15 K; 101.33 kPa; Liquid; Standard Abbe refractometry

CCCCC(CC)CO (stereo unspecified) [2-ethyl-1-hexanol]
[1]
Conditions | mass density [kg/m3]
283.15 K | 839.89
288.15 K | 836.26
293.15 K | 832.62
298.14 K | 828.96
303.15 K | 825.28
308.15 K | 821.58
313.14 K | 817.86
318.15 K | 814.11
323.15 K | 810.33
328.15 K | 806.52
333.15 K | 802.68
338.14 K | 798.8
343.15 K | 794.87
348.15 K | 790.91
353.15 K | 786.89
358.15 K | 782.83
363.15 K | 778.72

speed of sound [m/s], [1]
Conditions | 101 kPa | 15200 kPa | 30390 kPa | 45590 kPa | 60790 kPa | 75990 kPa | 91180 kPa | 101320 kPa
292.89 K | – | 1418.5 | 1487.2 | 1549.6 | 1607.2 | 1660.4 | 1710.5 | 1742
293.15 K | 1336.3 | – | – | – | – | – | – | –
298.15 K | 1318.4 | – | – | – | – | – | – | –
298.19 K | – | 1400.2 | 1470.1 | 1533.2 | 1591.5 | 1645.4 | 1696 | 1728
303.15 K | 1300.6 | 1383.5 | 1454.4 | 1518.4 | 1577.5 | 1631.8 | 1682.7 | 1715.1
308.13 K | – | 1367.2 | 1438.9 | 1503.8 | 1563.5 | 1618.6 | 1669.8 | 1702.5
308.15 K | 1282.8 | – | – | – | – | – | – | –
313.1 K | – | 1351.2 | 1424 | 1489.6 | 1549.7 | 1605.5 | 1657.2 | 1689.9
313.15 K | 1264.9 | – | – | – | – | – | – | –
318.15 K | 1247.1 | – | – | – | – | – | – | –
318.26 K | – | 1334.8 | 1408.8 | 1475.2 | 1535.9 | 1592.2 | 1644.5 | 1677.4

Conditions | refractive index
[2] | 1.4292
